Reference: patent US11718604B2, “4-amino-6-(1,3-benzodioxole)picolinates and their use as herbicides” (Dow AgroSciences LLC, priority 2018, dated 2023)

Legend:
Assay type in all cases: in vivo
[1] = system: VIOTR: wild violet (Viola tricolor); assay: Post-emergent herbicidal test, wild violet; conditions: post-emergence, 336 h, 14 days after application, read-out: Visual Growth Reduction (%) 14 Days After Application VIOTR; for pest or weed control at 17.5 g/ha: 17.5 g ai/ha; for pest or weed control at 35 g/ha: 35 g ai/ha; for pest or weed control at 70 g/ha: 70 g ai/ha; for pest or weed control at 140 g/ha: 140 g ai/ha
Method in brief: (§1)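 Post-emergence foliar spray, 187 L/ha, 1st–2nd true leaf plants; vehicle acetone/DMSO/IPA/water + Atplus 411F + Triton X-155; solvent-blank controls; subirrigated; 14 d greenhouse, visual % injury.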

[2] = system: ABUTH: velvetleaf (Abutilon theophrasti); assay: Post-emergent herbicidal test, velvetleaf; conditions: post-emergence, 336 h, 14 days after application, read-out: Visual Growth Reduction (%) 14 Days After Application ABUTH; for pest or weed control at 17.5 g/ha: 17.5 g ai/ha; for pest or weed control at 35 g/ha: 35 g ai/ha; for pest or weed control at 70 g/ha: 70 g ai/ha; for pest or weed control at 140 g/ha: 140 g ai/ha
Method in brief: as §1

[3] = system: EPHHL: wild poinsettia (Euphorbia heterophylla); assay: Post-emergent herbicidal test, wild poinsettia; conditions: post-emergence, 336 h, 14 days after application, read-out: Visual Growth Reduction (%) 14 Days After Application EPHHL; for pest or weed control at 17.5 g/ha: 17.5 g ai/ha; for pest or weed control at 35 g/ha: 35 g ai/ha; for pest or weed control at 70 g/ha: 70 g ai/ha; for pest or weed control at 140 g/ha: 140 g ai/ha
Method in brief: as §1

[4] = system: DIGSA: large crabgrass (Digitaria sanguinalis); assay: Post-emergent herbicidal test, large crabgrass; conditions: post-emergence, 336 h, 14 days after application, read-out: Visual Growth Reduction (%) 14 Days After Application DIGSA; for pest or weed control at 17.5 g/ha: 17.5 g ai/ha; for pest or weed control at 35 g/ha: 35 g ai/ha; for pest or weed control at 70 g/ha: 70 g ai/ha; for pest or weed control at 140 g/ha: 140 g ai/ha
Method in brief: as §1

[5] = system: SETFA: giant foxtail (Setaria faberi); assay: Post-emergent herbicidal test, giant foxtail; conditions: post-emergence, 336 h, 14 days after application, read-out: Visual Growth Reduction (%) 14 Days After Application SETFA; for pest or weed control at 17.5 g/ha: 17.5 g ai/ha; for pest or weed control at 35 g/ha: 35 g ai/ha; for pest or weed control at 70 g/ha: 70 g ai/ha; for pest or weed control at 140 g/ha: 140 g ai/ha
Method in brief: as §1

[6] = system: CIRAR: Canada thistle (Cirsium arvense); assay: Post-emergent herbicidal test, Canada thistle; conditions: post-emergence, 336 h, 14 days after application, read-out: Visual Growth Reduction (%) 14 Days After Application CIRAR; for pest or weed control at 17.5 g/ha: 17.5 g ai/ha; for pest or weed control at 35 g/ha: 35 g ai/ha; for pest or weed control at 70 g/ha: 70 g ai/ha; for pest or weed control at 140 g/ha: 140 g ai/ha
Method in brief: as §1

[7] = system: ECHCG: barnyardgrass (Echinochloa crus-galli); assay: Post-emergent herbicidal test, barnyardgrass; conditions: post-emergence, 336 h, 14 days after application, read-out: Visual Growth Reduction (%) 14 Days After Application ECHCG; for pest or weed control at 17.5 g/ha: 17.5 g ai/ha; for pest or weed control at 35 g/ha: 35 g ai/ha; for pest or weed control at 70 g/ha: 70 g ai/ha; for pest or weed control at 140 g/ha: 140 g ai/ha
Method in brief: as §1

[8] = system: BRSNN: oilseed rape, canola (Brassica napus); assay: Post-emergent herbicidal test, oilseed rape; conditions: post-emergence, 336 h, 14 days after application, read-out: Visual Growth Reduction (%) 14 Days After Application BRSNN; for pest or weed control at 17.5 g/ha: 17.5 g ai/ha; for pest or weed control at 35 g/ha: 35 g ai/ha; for pest or weed control at 70 g/ha: 70 g ai/ha; for pest or weed control at 140 g/ha: 140 g ai/ha
Method in brief: as §1

[9] = system: SORVU: shattercane (Sorghum bicolor); assay: Post-emergent herbicidal test, shattercane; conditions: post-emergence, 336 h, 14 days after application, read-out: Visual Growth Reduction (%) 14 Days After Application SORVU; for pest or weed control at 17.5 g/ha: 17.5 g ai/ha; for pest or weed control at 35 g/ha: 35 g ai/ha; for pest or weed control at 70 g/ha: 70 g ai/ha; for pest or weed control at 140 g/ha: 140 g ai/ha
Method in brief: as §1

[10] = system: CYPES: yellow nutsedge (Cyperus esculentus); assay: Post-emergent herbicidal test, yellow nutsedge; conditions: post-emergence, 336 h, 14 days after application, read-out: Visual Growth Reduction (%) 14 Days After Application CYPES; for pest or weed control at 17.5 g/ha: 17.5 g ai/ha; for pest or weed control at 35 g/ha: 35 g ai/ha; for pest or weed control at 70 g/ha: 70 g ai/ha; for pest or weed control at 140 g/ha: 140 g ai/ha
Method in brief: as §1

[11] = system: IPOHE: ivyleaf morningglory (Ipomoea hederacea); assay: Post-emergent herbicidal test, ivyleaf morningglory; conditions: post-emergence, 336 h, 14 days after application, read-out: Visual Growth Reduction (%) 14 Days After Application IPOHE; for pest or weed control at 17.5 g/ha: 17.5 g ai/ha; for pest or weed control at 35 g/ha: 35 g ai/ha; for pest or weed control at 70 g/ha: 70 g ai/ha; for pest or weed control at 140 g/ha: 140 g ai/ha
Method in brief: as §1

`COC(=O)c1nc(-c2ccc(Br)c3c2OC(F)(F)O3)c(F)c(N)c1Cl` [Compound 9] was tested, and the pest or weed control at 17.5 g/ha [1] was 0%, the pest or weed control at 35 g/ha [1] was 0% and the pest or weed control at 70 g/ha [1] was 20%. It also gave a pest or weed control at 140 g/ha [1] of 20%, a pest or weed control at 17.5 g/ha [2] of 80% and a pest or weed control at 35 g/ha [2] of 85%. It also gave a pest or weed control at 70 g/ha [2] of 85%, a pest or weed control at 140 g/ha [2] of 85% and a pest or weed control at 17.5 g/ha [3] of 0%. The pest or weed control at 35 g/ha [3] was 0%, the pest or weed control at 70 g/ha [3] was 0% and the pest or weed control at 140 g/ha [3] was 0%. The pest or weed control at 17.5 g/ha [4] was 0%, the pest or weed control at 35 g/ha [4] was 0% and the pest or weed control at 70 g/ha [4] was 0%. It also gave a pest or weed control at 140 g/ha [4] of 0%, a pest or weed control at 17.5 g/ha [5] of 0% and a pest or weed control at 35 g/ha [5] of 0%. The pest or weed control at 70 g/ha [5] was 0%, the pest or weed control at 140 g/ha [5] was 0% and the pest or weed control at 17.5 g/ha [6] was 70%. The pest or weed control at 35 g/ha [6] was 80%, the pest or weed control at 70 g/ha [6] was 85% and the pest or weed control at 140 g/ha [6] was 85%. For the same compound, the pest or weed control at 17.5 g/ha [7] was 0%, the pest or weed control at 35 g/ha [7] was 0% and the pest or weed control at 70 g/ha [7] was 0%. It also gave a pest or weed control at 140 g/ha [7] of 0%, a pest or weed control at 17.5 g/ha [8] of 60% and a pest or weed control at 35 g/ha [8] of 60%. It also gave a pest or weed control at 70 g/ha [8] of 75%, a pest or weed control at 140 g/ha [8] of 75% and a pest or weed control at 17.5 g/ha [9] of 0%. For the same compound, the pest or weed control at 35 g/ha [9] was 0%, the pest or weed control at 70 g/ha [9] was 10% and the pest or weed control at 140 g/ha [9] was 10%. The pest or weed control at 17.5 g/ha [10] was 0%, the pest or weed control at 35 g/ha [10] was 0% and the pest or weed control at 70 g/ha [10] was 0%. It also gave a pest or weed control at 140 g/ha [10] of 0%, a pest or weed control at 17.5 g/ha [11] of 0% and a pest or weed control at 35 g/ha [11] of 0%. The pest or weed control at 70 g/ha [11] was 0% and the pest or weed control at 140 g/ha [11] was 0%.
For `COC(=O)c1nc(-c2ccc(Cl)c3c2OCO3)c(F)c(N)c1Cl` [Compound 1A, methyl 4-amino-3-chloro-6-(7-chlorobenzo[d][1,3]dioxol-4-yl)-5-fluoropicolinate], the pest or weed control at 17.5 g/ha [1] was 53%, the pest or weed control at 35 g/ha [1] was 95% and the pest or weed control at 70 g/ha [1] was 75%. It also gave a pest or weed control at 140 g/ha [1] of 90%, a pest or weed control at 17.5 g/ha [2] of 85% and a pest or weed control at 35 g/ha [2] of 90%. The pest or weed control at 70 g/ha [2] was 93%, the pest or weed control at 140 g/ha [2] was 95% and the pest or weed control at 17.5 g/ha [3] was 3%. The pest or weed control at 35 g/ha [3] was 10%, the pest or weed control at 70 g/ha [3] was 13% and the pest or weed control at 140 g/ha [3] was 18%. It also gave a pest or weed control at 17.5 g/ha [4] of 5%, a pest or weed control at 35 g/ha [4] of 20% and a pest or weed control at 70 g/ha [4] of 50%. It also gave a pest or weed control at 140 g/ha [4] of 28%, a pest or weed control at 17.5 g/ha [5] of 15% and a pest or weed control at 35 g/ha [5] of 15%. It also gave a pest or weed control at 70 g/ha [5] of 25%, a pest or weed control at 140 g/ha [5] of 30% and a pest or weed control at 17.5 g/ha [6] of 83%. For the same compound, the pest or weed control at 35 g/ha [6] was 83%, the pest or weed control at 70 g/ha [6] was 88% and the pest or weed control at 140 g/ha [6] was 93%. For the same compound, the pest or weed control at 17.5 g/ha [7] was 8%, the pest or weed control at 35 g/ha [7] was 18% and the pest or weed control at 70 g/ha [7] was 28%. It also gave a pest or weed control at 140 g/ha [7] of 30%, a pest or weed control at 17.5 g/ha [8] of 78% and a pest or weed control at 35 g/ha [8] of 88%. The pest or weed control at 70 g/ha [8] was 95%, the pest or weed control at 140 g/ha [8] was 98% and the pest or weed control at 17.5 g/ha [9] was 25%. For the same compound, the pest or weed control at 35 g/ha [9] was 43%, the pest or weed control at 70 g/ha [9] was 55% and the pest or weed control at 140 g/ha [9] was 65%. It also gave a pest or weed control at 17.5 g/ha [10] of 78%, a pest or weed control at 35 g/ha [10] of 83% and a pest or weed control at 70 g/ha [10] of 83%. The pest or weed control at 140 g/ha [10] was 80%, the pest or weed control at 17.5 g/ha [11] was 0% and the pest or weed control at 35 g/ha [11] was 0%. The pest or weed control at 70 g/ha [11] was 0% and the pest or weed control at 140 g/ha [11] was 0%.
